The term EC50 denotes the concentration needed to bring the measured effect to its halfway point.

For 47 compounds, EC50 results are on record in patent US20050075375A1 (priority 2003, published 2005).

Like-named read-outs stand apart in the source and are kept apart here. Some results are limits rather than exact numbers.

The test system of the assay is monocistronic NK5.1 HCV replicon in Huh7 cells. The experiment in a line: HCV replicon assay, monocistronic replicon cell line. Format: cell-based, hepatitis C virus. The note with it: read-out: Mono EC50 Median. In outline:
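Huh7 cells carrying the monocistronic NK5.1 replicon, seeded 24 h before dosing, were exposed to six-point half-log compound series (0.6% DMSO) for 3 days at 37 °C. Replicon RNA was quantified by TaqMan RT-PCR, normalised to GAPDH and compared with DMSO controls to derive EC50.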
In general terms: Replicon systems follow genome replication, usually without infectious particles.

The mark [1] stands for this setting: Hepatitis C virus, Huh-7, 72 h, Table 1, monocistronic replicon in Huh7 cells, 3 days incubation, HCV RNA/GAPDH RNA by TaqMan RT-PCR.

As for `Oc1ccc(Cl)cc1-c1nc(-c2ccccn2)no1` [Compound 145, 4-Chloro-2-(3-pyridin-2-yl-[1,2,4]oxadiazol-5-yl)-phenol], under setting [1], the half-maximal effective concentration (EC50) was 2.3 µM.
Still for that read-out and setting: the value for `O=[N+]([O-])c1ccc(O)c(-c2nc(-c3ccccn3)no2)c1` [Compound 146, 4-Nitro-2-(3-pyridin-2-yl-[1,2,4]oxadiazol-5-yl)-phenol] was above 32 µM; that for `COc1ccc(O)c(-c2nc(-c3ccccn3)no2)c1` [Compound 147, 4-Methoxy-2-(3-pyridin-2-yl-[1,2,4]oxadiazol-5-yl)-phenol] was 4.4 µM; that for `O=[N+]([O-])c1cccc(-c2nc(-c3ccccn3)no2)c1` [Compound 148, 2-[5-(3-Nitro-phenyl)-[1,2,4]oxadiazol-3-yl]-pyridine] was above 19 µM.
`O=[N+]([O-])c1ccc(F)c(-c2nc(-c3ccccn3)no2)c1` [Compound 149]: the EC50 under setting [1] amounted to 4.1 µM.
Still for that read-out and setting: the value for `Oc1ccc(O)c(-c2nc(-c3ccccn3)no2)c1` [Compound 150, 2-(3-Pyridin-2-yl-[1,2,4]oxadiazol-5-yl)-benzene-1,4-diol] was 16 µM; that for `COc1cccc(-c2nc(-c3ccccn3)no2)c1O` [Compound 151, 2-Methoxy-6-(3-pyridin-2-yl-[1,2,4]oxadiazol-5-yl)-phenol] was 18 µM; that for `COc1ccc(-c2nc(-c3ccccn3)no2)c(O)c1` [Compound 152, 5-Methoxy-2-(3-pyridin-2-yl-[1,2,4]oxadiazol-5-yl)-phenol] was 5.6 µM.
On the same count and under the same terms, the value for `FC(F)(F)c1cccnc1-c1noc(-c2cccc3ccccc23)n1` [Compound 153, 2-(5-Naphthalen-1-yl-[1,2,4]oxadiazol-3-yl)-3-trifluoromethyl-pyridine] was 7.9 µM; that for `O=[N+]([O-])c1cccnc1-c1noc(-c2cc(Cl)ccc2O)n1` [Compound 154, 4-Chloro-2-[3-(3-nitro-pyridin-2-yl)-[1,2,4]oxadiazol-5-yl]-phenol] was above 19 µM.
Turning to `O=[N+]([O-])c1cccnc1-c1noc(-c2cc(Br)ccc2O)n1` [Compound 155, 4-Bromo-2-[3-(3-nitro-pyridin-2-yl)-[1,2,4]oxadiazol-5-yl]-phenol], under setting [1], the EC50 is above 19 µM.
As for `O=[N+]([O-])c1cccc(-c2nc(-c3ncccc3[N+](=O)[O-])no2)c1` [Compound 156, 3-Nitro-2-[5-(3-nitro-phenyl)-[1,2,4]oxadiazol-3-yl]-pyridine], for the setting “Hepatitis C virus, Huh-7, 72 h”, the EC50 was above 19 µM.
`O=[N+]([O-])c1cccnc1-c1noc(-c2cccc3ccccc23)n1` [Compound 157, 2-(5-Naphthalen-1-yl-[1,2,4]oxadiazol-3-yl)-3-nitro-pyridine]: the EC50 under setting [1] is 4.7 µM.
`O=[N+]([O-])c1ccc(O)c(-c2nc(-c3ncccc3[N+](=O)[O-])no2)c1` [Compound 158, 4-Nitro-2-[3-(3-nitro-pyridin-2-yl)-[1,2,4]oxadiazol-5-yl]-phenol]: under “Hepatitis C virus, Huh-7, 72 h”, the EC50 stood at 11 µM.
`COc1ccc(OC)c(-c2nc(-c3ncccc3[N+](=O)[O-])no2)c1` [Compound 159]: the EC50 under setting [1] turned out to be 16 µM.
`COc1ccc(O)c(-c2nc(-c3ncccc3[N+](=O)[O-])no2)c1` [Compound 160, 4-Methoxy-2-[3-(3-nitro-pyridin-2-yl)-[1,2,4]oxadiazol-5-yl]-phenol]: the EC50 under setting [1] was above 19 µM.
Same read-out and setting: the value for `O=[N+]([O-])c1cccnc1-c1noc(-c2ccccc2O)n1` [Compound 161, 2-[3-(3-Nitro-pyridin-2-yl)-[1,2,4]oxadiazol-5-yl]-phenol] was above 19 µM.
On the same count and under the same terms, the value for `O=[N+]([O-])c1cccnc1-c1noc(-c2cc(F)ccc2O)n1` [Compound 162, 4-Fluoro-2-[3-(3-nitro-pyridin-2-yl)-[1,2,4]oxadiazol-5-yl]-phenol] was 17 µM; that for `CN(C)c1ccc(-c2nc(-c3ccccn3)no2)c(O)c1` [Compound 163, 5-Dimethylamino-2-(3-pyridin-2-yl-[1,2,4]oxadiazol-5-yl)-phenol] was 1.5 µM.
The same measure, in the same setting: the value for `Oc1ccc(F)cc1-c1nc(-c2ccccn2)no1` [Compound 164, 4-Fluoro-2-(3-pyridin-2-yl-[1,2,4]oxadiazol-5-yl)-phenol] was 9 µM; that for `COc1cccc(-c2nc(-c3ncccc3[N+](=O)[O-])no2)c1` [Compound 165, 2-[5-(3-Methoxy-phenyl)-[1,2,4]oxadiazol-3-yl]-3-nitro-pyridine] was 18 µM.
As to `COc1cccc(-c2nc(-c3ncccc3[N+](=O)[O-])no2)c1O` [Compound 166, 2-Methoxy-6-[3-(3-nitro-pyridin-2-yl)-[1,2,4]oxadiazol-5-yl]-phenol], the EC50 under setting [1] is above 19 µM.
As to `O=[N+]([O-])c1ccc(-c2nc(-c3ncccc3[N+](=O)[O-])no2)c(Cl)c1` [Compound 167, 2-[5-(2-Chloro-4-nitro-phenyl)-[1,2,4]oxadiazol-3-yl]-3-nitro-pyridine], where the note is “Hepatitis C virus, Huh-7, 72 h”, the EC50 was 12 µM.
In the case of `O=[N+]([O-])c1ccc(F)c(-c2nc(-c3ncccc3[N+](=O)[O-])no2)c1` [Compound 168, 2-[5-(2-Fluoro-5-nitro-phenyl)-[1,2,4]oxadiazol-3-yl]-3-nitro-pyridine], the EC50 (Hepatitis C virus, Huh-7, 72 h) turned out to be 4.6 µM.
As for `COc1ccc2ccccc2c1-c1nc(-c2ncccc2[N+](=O)[O-])no1` [Compound 169], under setting [1], the EC50 is above 19 µM.
On the same count and under the same terms, the value for `COc1ccc(-c2nc(-c3ncccc3[N+](=O)[O-])no2)c(O)c1` [Compound 170, 5-Methoxy-2-[3-(3-nitro-pyridin-2-yl)-[1,2,4]oxadiazol-5-yl]-phenol] was 12 µM; that for `O=[N+]([O-])c1cccnc1-c1noc(-c2cc(O)ccc2O)n1` [Compound 171, 2-[3-(3-Nitro-pyridin-2-yl)-[1,2,4]oxadiazol-5-yl]-benzene-1,4-diol] was 5.4 µM.
Consider `Cc1ccc(O)c(-c2nc(-c3ccccn3)no2)c1` [Compound 172, 4-Methyl-2-(3-pyridin-2-yl-[1,2,4]oxadiazol-5-yl)-phenol], for which, under setting [1], the EC50 came out at 6 µM.
Still for that read-out and setting: the value for `O=[N+]([O-])c1ccc(Cl)c(-c2nc(-c3ccccn3)no2)c1` [Compound 173, 2-[5-(2-Chloro-5-nitro-phenyl)-[1,2,4]oxadiazol-3-yl]-pyridine] was 3.8 µM.
In the case of `Cc1ccc(O)c(-c2nc(-c3ncccc3[N+](=O)[O-])no2)c1` [Compound 174, 4-Methyl-2-[3-(3-nitro-pyridin-2-yl)-[1,2,4]oxadiazol-5-yl]-phenol], under setting [1], the EC50 is 10 µM.
On the same count and under the same terms, the value for `COc1ccc(-c2nc(-c3ncccc3C)no2)c(O)c1` [Compound 175, 5-Methoxy-2-[3-(3-methyl-pyridin-2-yl)-[1,2,4]oxadiazol-5-yl]-phenol] was 0.5 µM; that for `COc1cccc(-c2nc(-c3ncccc3C)no2)c1` [Compound 176, 2-[5-(3-Methoxy-phenyl)-[1,2,4]oxadiazol-3-yl]-3-methyl-pyridine] was 13 µM; that for `Cc1cccnc1-c1noc(-c2cccc3ccccc23)n1` [Compound 177, 3-Methyl-2-(5-naphthalen-1-yl-[1,2,4]oxadiazol-3-yl)-pyridine] was 7.2 µM.
The same measure, in the same setting: the value for `COc1ccc(OC)c(-c2nc(-c3ncccc3C)no2)c1` [Compound 178, 2-[5-(2,5-Dimethoxy-phenyl)-[1,2,4]oxadiazol-3-yl]-3-methyl-pyridine] was above 32 µM; that for `Cc1cccnc1-c1noc(-c2cc(O)ccc2O)n1` [Compound 179, 2-[3-(3-Methyl-pyridin-2-yl)-[1,2,4]oxadiazol-5-yl]-benzene-1,4-diol] was 1.3 µM; that for `Cc1cccnc1-c1noc(-c2ccc(N(C)C)cc2O)n1` [Compound 180] was 2.1 µM.
Still for that read-out and setting: the value for `Cc1cccnc1-c1noc(-c2cccc([N+](=O)[O-])c2)n1` [Compound 181] was above 32 µM; that for `Cc1cccnc1-c1noc(-c2ccc([N+](=O)[O-])cc2Cl)n1` [Compound 182, 2-[5-(2-Chloro-4-nitro-phenyl)-[1,2,4]oxadiazol-3-yl]-3-methyl-pyridine] was 12 µM.
For the compound `COc1ccc2ccccc2c1-c1nc(-c2ncccc2C)no1` [Compound 183], under setting [1], the EC50 is above 32 µM.
Still for that read-out and setting: the value for `COc1cccc(-c2nc(-c3ncccc3C)no2)c1O` [Compound 184, 2-Methoxy-6-[3-(3-methyl-pyridin-2-yl)-[1,2,4]oxadiazol-5-yl]-phenol] was 0.68 µM.
As for `COc1ccc(O)c(-c2nc(-c3ncccc3C)no2)c1` [Compound 185, 4-Methoxy-2-[3-(3-methyl-pyridin-2-yl)-[1,2,4]oxadiazol-5-yl]-phenol], the EC50 under setting [1] was 1.6 µM.
Still for that read-out and setting: the value for `Cc1cccnc1-c1noc(-c2cc(Cl)ccc2O)n1` [Compound 186, 4-Chloro-2-[3-(3-methyl-pyridin-2-yl)-[1,2,4]oxadiazol-5-yl]-phenol] was 3.9 µM.
For the compound `Cc1cccnc1-c1noc(-c2cc(F)ccc2O)n1` [Compound 187], where the note is “Table 1, monocistronic replicon in Huh7 cells, 3 days incubation, HCV RNA/GAPDH RNA by TaqMan RT-PCR”, the EC50 was 6.5 µM.
Consider `Cc1cccnc1-c1noc(-c2ccccc2O)n1` [Compound 188, 2-[3-(3-Methyl-pyridin-2-yl)-[1,2,4]oxadiazol-5-yl]-phenol], for which, under setting [1], the EC50 was above 32 µM.
The same measure, in the same setting: the value for `Cc1cccnc1-c1noc(-c2c(O)ccc3ccccc23)n1` [Compound 189, 1-[3-(3-Methyl-pyridin-2-yl)-[1,2,4]oxadiazol-5-yl]-naphthalen-2-ol] was 1.2 µM; that for `Cc1cccnc1-c1noc(-c2cc(Br)ccc2O)n1` [Compound 190, 4-Bromo-2-[3-(3-methyl-pyridin-2-yl)-[1,2,4]oxadiazol-5-yl]-phenol] was 0.69 µM; that for `Cc1cccnc1-c1noc(-c2cc([N+](=O)[O-])ccc2Cl)n1` [Compound 191, 2-[5-(2-Chloro-5-nitro-phenyl)-[1,2,4]oxadiazol-3-yl]-3-methyl-pyridine] was 2 µM.
